From ChEMBL document CHEMBL1156887, “Discovery of olodaterol, a novel inhaled beta2-adrenoceptor agonist with a 24 h bronchodilatory efficacy” (Bioorg Med Chem Lett, 2010)

Legend:
[1] = Apparent permeability from basolateral to apical side in human Caco-2 cells; type: ADME, cell-based
[2] = Apparent permeability from apical to basolateral side in human Caco-2 cells; type: ADME, cell-based
[3] = Lipophilicity, log D at pH 7.4; type: physicochemical; settings: buffer
[4] = Oral bioavailability in rat; type: ADME, organism-based; settings: in vivo

- Papp B→A [1]: 9 ×10⁻⁶ cm/s
- Papp A→B [2]: 0.35 ×10⁻⁶ cm/s
- logD [3]: 1.2
- bioavailability [4]: 3%
Structure (SMILES): COc1ccc(CC(C)(C)NC[C@H](O)c2cc(O)cc3c2OCC(=O)N3)cc1 [OLODATEROL]
